Test results taken from patent US20130115271A1, “PREDICTORS OF PHARMACOKINETIC AND PHARMACODYNAMIC DISPOSITION OF CARRIER-MEDIATED AGENTS” (THE UNIVERSITY OF NORTH CAROLINA AT CHAPEL HILL, priority 2010, published 2013).

Columns and labels:
[1] = test system: monocytes (MO); assay: Degree of monocytopenia in phase I studies of S-CKD602 and NL-CKD602; format: in vivo, human; details: patients with refractory solid tumors
From the text: (§1) To examine the relationship between S-CKD602 PK and monocytes (MO) in patients, we evaluated the degree of neutropenia and monocytopenia as part of phase I studies of S-CKD602 and non-liposomal CKD-602 (NL-CKD602) in patients with refractory solid tumors. After administration of NL-CKD602, the % decrease at nadir in absolute neutrophil count (ANC) and MO were 86±11% and 87±12%, respectively (P>0.05). For NL-CKD602, the ratio of % decrease in MO to ANC was 1.1±0.4. After administration of S-CKD602, the % decrease at nadir in ANC and MO were 42±30% and 58±34%, respectively (P=0.001). For S-CKD602, the ratio of % decrease in MO to ANC was 2.1±2.0. The relationship between the % decrease in MO at nadir and CL of encapsulated CKD-602 and the release of CKD-602 from S-CKD602 in plasma are presented in FIGS. 3 and 4, respectively. […] The CL of encapsulated drug and release of drug from the liposome in plasma is related to a reduction in MO. […] Consistent with the PK-PD interaction between S-CKD602 and MO we also have reported that decreased DOXIL® CL from cycle 1 to 3 is related to a reduction in MO during each subsequent cycle (Gabizon et al., (1994) Cancer Res. 54: 987-992; La-Beck et al., (2009) J. Clin. Oncol. 27(15S)).

[2] = test system: absolute neutrophil count (ANC); assay: Degree of neutropenia in phase I studies of S-CKD602 and NL-CKD602; format: in vivo, human; details: patients with refractory solid tumors
From the text: as §1

Question: What does the source list for `CC[C@@]1(O)C(=O)OCc2c1cc1n(c2=O)Cc2c-1nc1ccccc1c2CCNC(C)C` [NL-CKD602]?
Answer: % decrease at nadir in monocytes (MO) [1]: 87±12%; ratio of % decrease in MO to ANC [1]: 1.1±0.4; % decrease at nadir in absolute neutrophil count (ANC) [2]: 86±11%
